Patent US20240124460A1, “METHODS AND COMPOSITIONS FOR TARGETED PROTEIN DEGRADATION” (Ranok Therapeutics (Hangzhou) Co. Ltd., priority 2020, published 2024)

Columns and labels:
[1] = system: U-87 MG human glioblastoma; assay: U87 MG CCK-8 proliferation assay; format: cell-based; conditions: Homo sapiens, U-87 MG, 72 h, U-87 MG cells, read-out: U87MG CCK-8
Outline: (§1)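 3-fold dilution series, 20 μM–1.02 nM; ATCC culture conditions; CCK-8 absorbance read-out; % inhibition = 100 − (D−B)/(S−B)×100, S = DMSO cells, B = medium + DMSO, no cells.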

[2] = system: MV-4-11 human acute myeloid leukemia; assay: MV-4-11 CCK-8 proliferation assay; format: cell-based; conditions: Homo sapiens, MV4-11; MV-4-11 cells, 72 hr
Outline: as §1

HSP90α protein = biological target: T1, HSP90α protein (Homo sapiens, UniProt P07900); assay: HSP90α-binding FP (BODIPY) assay; conditions: FP competition with BODIPY-labeled RNK04010
T1 construct: purchased BPS Bioscience #50298
Outline: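 Fluorescence polarization measured competition with N-terminal human HSP90α, using either FITC-geldanamycin or BODIPY-labelled triazolone RNK04010 as tracer (5 nM final each). Compounds were tested in 2.5-fold dilutions from 20 μM to 5.2 nM, with incubation at 25 °C for 120 min (FITC) or 300 min (BODIPY).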

Row | EC50 [1] | EC50 [2] | IC50 (HSP90α protein) | SMILES
1 | < 100 nM | < 100 nM | < 100 nM | CCOc1cc(N2CCC(C(=O)N3CCC(CN4CCN(Cc5ccc(-n6c(O)nnc6-c6cc(CC)c(O)cc6O)cc5F)CC4)CC3)CC2)ccc1Nc1ncc2c(n1)N(S(C)(=O)=O)c1ccccc1C(=O)N2C [Compound 082, 2-((2-ethoxy-4-(4-(4-((4-(4-(3-(5-ethyl-2,4-dihydroxyphenyl)-5-hydroxy-4H-1,2,4-triazol-4-yl)-2-fluorobenzyl)piperazin-1-yl)methyl)piperidine-1-carbonyl)piperidin-1-yl)phenyl)amino)-5-methyl-11-(methylsulfonyl)-5,11-dihydro-6H-benzo[e]pyrimido[5,4-b][1,4]diazepin-6-one]
2 | < 100 nM | < 100 nM | < 100 nM | CCOc1cc(N2CCC(C(=O)N3CCC(CN4CCN(Cc5ccc(-n6c(C(=O)NC7(C)CC7)nnc6-c6cc(CC)c(O)cc6O)cc5)CC4)CC3)CC2)ccc1Nc1ncc2c(n1)N(S(C)(=O)=O)c1ccccc1C(=O)N2C [Compound 083, 4-(4-((4-((1-(1-(3-ethoxy-4-((5-methyl-11-(methylsulfonyl)-6-oxo-6,11-dihydro-5H-benzo[e]pyrimido[5,4-b][1,4]diazepin-2-yl)amino)phenyl)piperidine-4-carbonyl)piperidin-4-yl)methyl)piperazin-1-yl)methyl)phenyl)-5-(5-ethyl-2,4-dihydroxyphenyl)-N-(1-methylcyclopropyl)-4H-1,2,4-triazole-3-carboxamide]
3 | 100 to 1000 nM | < 100 nM | 100 to 1000 nM | CCOc1cc(N2CCC(C(=O)N3CCC(CN4CCN(Cc5ccc(-n6c(C(=O)NC(CC)CC)nnc6-c6cc(CC)c(O)cc6O)cc5)CC4)CC3)CC2)ccc1Nc1ncc2c(n1)N(S(C)(=O)=O)c1ccccc1C(=O)N2C [Compound 084, 4-(4-((4-((1-(1-(3-ethoxy-4-((5-methyl-11-(methylsulfonyl)-6-oxo-6,11-dihydro-5H-benzo[e]pyrimido[5,4-b][1,4]diazepin-2-yl)amino)phenyl)piperidine-4-carbonyl)piperidin-4-yl)methyl)piperazin-1-yl)methyl)phenyl)-5-(5-ethyl-2,4-dihydroxyphenyl)-N-(pentan-3-yl)-4H-1,2,4-triazole-3-carboxamide]
4 | 100 to 1000 nM | < 100 nM | 100 to 1000 nM | CCOc1cc(N2CCC(C(=O)N3CCN(Cc4ccc(-n5c(O)nnc5-c5cc(C)c(O)cc5O)cc4)CC3)CC2)ccc1Nc1ncc2c(n1)N(S(C)(=O)=O)c1ccccc1C(=O)N2C [Compound 085, 2-((4-(4-(4-(4-(3-(2,4-dihydroxy-5-methylphenyl)-5-hydroxy-4H-1,2,4-triazol-4-yl)benzyl)piperazine-1-carbonyl)piperidin-1-yl)-2-ethoxyphenyl)amino)-5-methyl-11-(methylsulfonyl)-5,11-dihydro-6H-benzo[e]pyrimido[5,4-b][1,4]diazepin-6-one]
5 | 100 to 1000 nM | < 100 nM | < 100 nM | CCOc1cc(N2CCC(C(=O)N3CCN(Cc4ccc(-n5c(O)nnc5-c5cc(CC)c(O)cc5O)cc4)CC3)CC2)ccc1Nc1ncc2c(n1)N(S(C)(=O)=O)c1ccccc1C(=O)N2C [Compound 086, 2-((2-ethoxy-4-(4-(4-(4-(3-(5-ethyl-2,4-dihydroxyphenyl)-5-hydroxy-4H-1,2,4-triazol-4-yl)benzyl)piperazine-1-carbonyl)piperidin-1-yl)phenyl)amino)-5-methyl-11-(methylsulfonyl)-5,11-dihydro-6H-benzo[e]pyrimido[5,4-b][1,4]diazepin-6-one]
6 | 100 to 1000 nM | < 100 nM | 100 to 1000 nM | CCCc1cc(-c2nnc(O)n2-c2ccc(CN3CCN(C(=O)C4CCN(c5ccc(Nc6ncc7c(n6)N(S(C)(=O)=O)c6ccccc6C(=O)N7C)c(OCC)c5)CC4)CC3)cc2)c(O)cc1O [Compound 087, 2-((4-(4-(4-(4-(3-(2,4-dihydroxy-5-propylphenyl)-5-hydroxy-4H-1,2,4-triazol-4-yl)benzyl)piperazine-1-carbonyl)piperidin-1-yl)-2-ethoxyphenyl)amino)-5-methyl-11-(methylsulfonyl)-5,11-dihydro-6H-benzo[e]pyrimido[5,4-b][1,4]diazepin-6-one]
7 | > 1000 nM | 100 to 1000 nM | 100 to 1000 nM | CCOc1cc(N2CCC(C(=O)NCc3ccc(-n4c(O)nnc4-c4cc(CC)c(O)cc4O)cc3F)CC2)ccc1Nc1ncc2c(n1)N(S(C)(=O)=O)c1ccccc1C(=O)N2C [Compound 088, 1-(3-ethoxy-4-((5-methyl-11-(methylsulfonyl)-6-oxo-6,11-dihydro-5H-benzo[e]pyrimido[5,4-b][1,4]diazepin-2-yl)amino)phenyl)-N-(4-(3-(5-ethyl-2,4-dihydroxyphenyl)-5-hydroxy-4H-1,2,4-triazol-4-yl)-2-fluorobenzyl)piperidine-4-carboxamide]
8 | > 1000 nM | 100 to 1000 nM | 100 to 1000 nM | CCOc1cc(N2CCC(C(=O)NCc3ccc(-n4c(O)nnc4-c4cc(CC)c(O)cc4O)cc3C(F)(F)F)CC2)ccc1Nc1ncc2c(n1)N(S(C)(=O)=O)c1ccccc1C(=O)N2C [Compound 089, 1-(3-ethoxy-4-((5-methyl-11-(methylsulfonyl)-6-oxo-6,11-dihydro-5H-benzo[e]pyrimido[5,4-b][1,4]diazepin-2-yl)amino)phenyl)-N-(4-(3-(5-ethyl-2,4-dihydroxyphenyl)-5-hydroxy-4H-1,2,4-triazol-4-yl)-2-(trifluoromethyl)benzyl)piperidine-4-carboxamide]
9 | > 1000 nM | 100 to 1000 nM | < 100 nM | CCCc1cc(-c2nnc(C(=O)NCCN3CCCCC3)n2-c2ccc(CN3CCN(CC4CCN(C(=O)C5CCN(c6ccc(Nc7ncc8c(n7)N(S(C)(=O)=O)c7ccccc7C(=O)N8C)c(OCC)c6)CC5)CC4)CC3)cc2)c(O)cc1O [Compound 093, 5-(2,4-dihydroxy-5-propylphenyl)-4-(4-((4-((1-(1-(3-ethoxy-4-((5-methyl-11-(methylsulfonyl)-6-oxo-6,11-dihydro-5H-benzo[e]pyrimido[5,4-b][1,4]diazepin-2-yl)amino)phenyl)piperidine-4-carbonyl)piperidin-4-yl)methyl)piperazin-1-yl)methyl)phenyl)-N-(2-(piperidin-1-yl)ethyl)-4H-1,2,4-triazole-3-carboxamide]
10 | > 1000 nM | 100 to 1000 nM | 100 to 1000 nM | CCOc1cc(N2CCC(C(=O)N3CCN(CCOc4ccc(Nc5cc(-n6nc(C(F)(F)F)c7c6CC(C)(C)CC7=O)ccc5C(N)=O)cc4)CC3)CC2)ccc1Nc1ncc2c(n1)N(S(C)(=O)=O)c1ccccc1C(=O)N2C [Compound 094, 4-(6,6-dimethyl-4-oxo-3-(trifluoromethyl)-4,5,6,7-tetrahydro-1H-indazol-1-yl)-2-((4-(2-(4-(1-(3-ethoxy-4-((5-methyl-11-(methylsulfonyl)-6-oxo-6,11-dihydro-5H-benzo[e]pyrimido[5,4-b][1,4]diazepin-2-yl)amino)phenyl)piperidine-4-carbonyl)piperazin-1-yl)ethoxy)phenyl)amino)benzamide]
11 | > 1000 nM | 100 to 1000 nM | > 1000 nM | CCOc1cc(N2CCC(C(=O)NCCCNC(=O)O[C@H]3CC[C@H](Nc4cc(-n5nc(C(F)(F)F)c6c5CC(C)(C)CC6=O)ccc4C(N)=O)CC3)CC2)ccc1Nc1ncc2c(n1)N(S(C)(=O)=O)c1ccccc1C(=O)N2C [Compound 095, (1R,4R)-4-((2-carbamoyl-5-(6,6-dimethyl-4-oxo-3-(trifluoromethyl)-4,5,6,7-tetrahydro-1H-indazol-1-yl)phenyl)amino)cyclohexyl (3-(1-(3-ethoxy-4-((5-methyl-11-(methylsulfonyl)-6-oxo-6,11-dihydro-5H-benzo[e]pyrimido[5,4-b][1,4]diazepin-2-yl)amino)phenyl)piperidine-4-carboxamido)propyl)carbamate]
12 | > 1000 nM | < 100 nM | 100 to 1000 nM | CCOc1cc(N2CCC(C(=O)N3CCC(Cc4ccc(CN(C)Cc5ccc(-n6c(C(=O)NCC(F)(F)F)nnc6-c6cc(CC)c(O)cc6O)cc5)cc4)CC3)CC2)ccc1Nc1ncc2c(n1)N(S(C)(=O)=O)c1ccccc1C(=O)N2C [Compound 097, 4-(4-(((4-((1-(1-(3-ethoxy-4-((5-methyl-11-(methylsulfonyl)-6-oxo-6,11-dihydro-5H-benzo[e]pyrimido[5,4-b][1,4]diazepin-2-yl)amino)phenyl)piperidine-4-carbonyl)piperidin-4-yl)methyl)benzyl)(methyl)amino)methyl)phenyl)-5-(5-ethyl-2,4-dihydroxyphenyl)-N-(2,2,2-trifluoroethyl)-4H-1,2,4-triazole-3-carboxamide]
13 | > 1000 nM | 100 to 1000 nM | > 1000 nM | CCOc1cc(N2CCC(C(=O)N3CCC(Cc4ccc(CN(C)Cc5ccc(-n6c(C(=O)NCC(F)(F)F)nnc6-c6cc(C)c(O)cc6O)cc5)cc4)CC3)CC2)ccc1Nc1ncc2c(n1)N(S(C)(=O)=O)c1ccccc1C(=O)N2C [Compound 100, 5-(2,4-dihydroxy-5-methylphenyl)-4-(4-(((4-((1-(1-(3-ethoxy-4-((5-methyl-11-(methylsulfonyl)-6-oxo-6,11-dihydro-5H-benzo[e]pyrimido[5,4-b][1,4]diazepin-2-yl)amino)phenyl)piperidine-4-carbonyl)piperidin-4-yl)methyl)benzyl)(methyl)amino)methyl)phenyl)-N-(2,2,2-trifluoroethyl)-4H-1,2,4-triazole-3-carboxamide]
